Source: patent publication US20070015779A1, “COMPOSITIONS AND TREATMENTS FOR INHIBITING KINASE AND/OR HMG-COA REDUCTASE” (priority 2005, published 2007)
Where “and” joins values, the source holds several entries; their conditions need not be identical. Equal entries are not always repeated. Structures can show the parent of a compound that is named as a salt.

Experiments:
[1] = system: oxazolone-induced mouse ear swelling; assay: Model for inhibition of topical inflammation (oxazolone-induced mouse ear swelling); type: in vivo; conditions: BALB/c mice, ear thickness 24 hours after oxazolone challenge
Protocol: Model for Inhibition of Topical Inflammation. […] Left ears were untreated. The thickness of both ears of each animal was measured with a Dyer model micrometer gauge 24 hours after oxazolone challenge, and the net increase in thickness of right ears versus left ears was calculated for each animal. Percent inhibition was calculated according to the formula: [(Iv−It)/Iv]×100, where Iv and It respectively refer to the average net increase in right ear thickness (mm) for vehicle and candidate compound treated mice.

[2] = molecular target: T1, human recombinant p38α protein kinase (Homo sapiens, UniProt Q16539); assay: Human p38α MAP kinase inhibition assay (cell-free); type: biochemical; conditions: inhibition of phosphorylation of myelin basic protein by recombinant human p38α MAP kinase by 50%; Table III; read-out: IC50 p38α MAPK
T1 construct: purchased UBI (Upstate Biotechnology) 14-251; host or cells: E. coli
Protocol: In vitro cell-free p38α MAP kinase inhibition assays were conducted by the method as described in Clerk et al., FEBS Lett., 426:93-96 (1998) for a number of lactones in formulas I/IIa/IIb. Briefly, human recombinant p38α protein kinase expressed in E. coli (UBI #14-251) was used. Myelin basic protein (MBP, UBI #13-110) was employed as substrate, and microtiter plate wells were coated with MBP (0.01 mg/ml) overnight at 4° C. Candidate compound and/or vehicle was preincubated with 0.075 μg/mL enzyme in modified HEPES buffer pH 7.4 at 25° C. for 15 minutes. The reaction was initiated by addition of 100 μM ATP and allowed to proceed for another 60 minutes. The reaction was terminated by aspirating the solution. Phosphorylated MBP was detected by incubation with a mouse monoclonal IgG2a anti-phosphoMBP antibody. Bound anti-phosphoMBP antibody was quantitated by incubation with a HRP conjugated goat anti-mouse IgG.

[3] = molecular target: T2, rat liver HMG-CoA reductase (Rattus norvegicus, UniProt P51639); assay: Cell-free HMG-CoA reductase inhibition assay; type: biochemical; conditions: concentration required to inhibit rat liver HMG-CoA reductase by 50%; read-out: IC50 HMG-CoA R
T2 sequence (P51639 1-887): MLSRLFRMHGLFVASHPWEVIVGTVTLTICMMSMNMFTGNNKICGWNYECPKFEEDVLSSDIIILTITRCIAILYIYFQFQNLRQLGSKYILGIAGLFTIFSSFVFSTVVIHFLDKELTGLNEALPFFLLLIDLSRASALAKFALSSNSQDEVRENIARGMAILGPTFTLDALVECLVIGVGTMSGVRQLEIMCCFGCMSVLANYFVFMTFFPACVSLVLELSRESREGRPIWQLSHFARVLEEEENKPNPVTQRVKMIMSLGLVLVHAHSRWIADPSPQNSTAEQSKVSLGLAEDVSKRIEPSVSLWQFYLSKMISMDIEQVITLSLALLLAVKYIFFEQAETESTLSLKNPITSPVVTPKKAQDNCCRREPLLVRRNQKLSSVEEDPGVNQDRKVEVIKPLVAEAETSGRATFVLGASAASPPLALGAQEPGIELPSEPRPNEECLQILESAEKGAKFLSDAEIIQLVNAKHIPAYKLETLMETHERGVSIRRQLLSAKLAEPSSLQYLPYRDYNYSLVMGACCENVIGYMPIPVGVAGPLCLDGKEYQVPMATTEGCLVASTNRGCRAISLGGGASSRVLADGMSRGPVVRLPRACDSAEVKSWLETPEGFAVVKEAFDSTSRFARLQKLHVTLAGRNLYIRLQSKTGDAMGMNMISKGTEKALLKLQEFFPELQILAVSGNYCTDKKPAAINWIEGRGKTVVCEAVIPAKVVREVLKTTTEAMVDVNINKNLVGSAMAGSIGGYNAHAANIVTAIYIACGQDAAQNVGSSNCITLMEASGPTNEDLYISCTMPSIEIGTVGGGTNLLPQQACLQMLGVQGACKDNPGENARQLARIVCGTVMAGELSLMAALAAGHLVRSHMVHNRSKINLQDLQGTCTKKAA
Protocol: An example of a cell-free HMG-CoA reductase assay involves radiometric procedures described in Shum et al., Ther. Drug Monit. 20:41-49 (1998), incorporated herein by reference. Briefly, about 150 μg/mL of HMG-CoA reductase can be incubated with a candidate compound, together with about 12 μM [^14C]HMG-CoA and about 200 μM NADPH in about 200 μL 0.2M phosphate buffer (pH about 7.2) for about 0.5 h at about 37° C. The [^14C]mevalonate that forms can be converted under acidic conditions to [^14C]mevalonolactone and separated from un-reacted substrate, for example, by ion-exchange chromatography, and then quantified, for example, by liquid scintillation counting.

[4] = system: LPS-induced TNF-α release from human peripheral blood mononuclear cells; assay: Whole cell LPS-stimulated TNF-α release assay; type: cell-based; conditions: inhibition of LPS-induced TNF-α release from human peripheral blood mononuclear cells by 50%
Protocol: The procedure as described in Welker et al., Int. Arch. Allergy and Immunol. 109:110-115 (1996) can be followed. Briefly, a candidate compound and/or vehicle can be preincubated with human peripheral blood mononuclear leukocytes (PBML, 5×10^5/ml) cells in AIM-V medium pH 7.4 for 2 hours. Lipopolysaccharide (LPS, 25 ng/ml) can be added to stimulate the cells, which can be incubated overnight at 37° C. TNF-α cytokine levels in the conditioned medium can then be quantitated using a sandwich ELISA kit.

[5] = dose 2 × 0.3 mg topical to right ear
[6] = dose 2 × 1 mg topical to right ear
[7] = dose 2 × 2 mg topical to right ear

T1 sequence (Q16539 whole entry): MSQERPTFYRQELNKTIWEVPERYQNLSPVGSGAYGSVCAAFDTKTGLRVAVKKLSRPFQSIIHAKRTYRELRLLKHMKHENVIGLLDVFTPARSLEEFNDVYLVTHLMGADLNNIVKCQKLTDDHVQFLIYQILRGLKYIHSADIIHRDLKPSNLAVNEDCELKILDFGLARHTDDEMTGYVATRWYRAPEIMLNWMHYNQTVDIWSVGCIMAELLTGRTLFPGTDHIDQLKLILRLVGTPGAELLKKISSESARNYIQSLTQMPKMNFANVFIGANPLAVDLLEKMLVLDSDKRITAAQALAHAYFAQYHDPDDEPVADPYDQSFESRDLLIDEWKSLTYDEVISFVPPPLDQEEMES

| Structure (SMILES) | % Inh. [1, 5] [%] | % Inh. [1, 7] [%] | further results |
| --- | --- | --- | --- |
| CC(C)c1c(C(=O)Nc2ccccc2)c(-c2ccccc2)c(-c2ccc(F)cc2)n1CC[C@@H]1C[C@@H](O)CC(=O)O1 [Atorvastatin lactone] | 40 | 50 | % Inh. ([1]; dose 2 × 0.3 mg topical to right ear, listed as atorvastatin lactone): 50% and 58% and 40%; % Inh. [1, 6]: 58% |
| CC(C)c1c(C(=O)Nc2ccccc2)c(-c2ccccc2)c(-c2ccc(F)cc2)n1CC[C@@H](O)C[C@@H](O)CC(=O)O [Atorvastatin sodium] | 9 | 63 | % Inh. [1, 6]: 31% |
| CCC(C)c1nn(-c2ccnc(Nc3ccccc3)c2)c(-c2ccc(F)cc2)c1/C=C/[C@@H](O)C[C@@H](O)CC(=O)O (stereo partly drawn) [Example 10a, (3R,5S,E)-7-(3-sec-butyl-5-(4-fluorophenyl)-1-(2-(phenylamino)pyridin-4-yl)-1H-pyrazol-4-yl)-3,5-dihydroxyhept-6-enoic acid calcium salt] | – | – | IC50 [2]: 11 µM; IC50 [3]: 0.003 µM; IC50 [4]: 21 µM |
| O=C(O)C[C@H](O)C[C@H](O)CCc1c(-c2ccccc2)nn(-c2ccnc(Nc3ccccc3)n2)c1-c1ccccc1 [Example 11c, (3R,5R)-7-(3,5-diphenyl-1-(2-(phenylamino)pyrimidin-4-yl)-1H-pyrazol-4-yl)-3,5-dihydroxyheptanoic acid] | – | – | IC50 [4]: 18 µM |
| CC(C)n1c(/C=C/C(O)CC(O)CC(=O)O)c(-c2ccc(F)cc2)c2ccccc21 (centres unmarked) [Fluvastatin sodium] | 28 | – | – |
| COc1ccc2c(c1)c(CC(=O)O)c(C)n2C(=O)c1ccc(Cl)cc1 [Indomethacin] | 44 | – | – |
| O=C([O-])C[C@H](O)C[C@H](O)/C=C/c1c(C2CC2)nc2ccccc2c1-c1ccc(F)cc1.O=C([O-])C[C@H](O)C[C@H](O)/C=C/c1c(C2CC2)nc2ccccc2c1-c1ccc(F)cc1.[Ca+2] [Pitavastatin calcium] | 9 | 60 | – |
| CC[C@H](C)C(=O)O[C@H]1C[C@H](O)C=C2C=C[C@H](C)[C@H](CC[C@@H](O)C[C@@H](O)CC(=O)O)[C@H]21 [Pravastatin sodium] | 24 | – | – |
| CC(C)c1nc(N(C)S(C)(=O)=O)nc(-c2ccc(F)cc2)c1/C=C/[C@@H](O)C[C@@H](O)CC(=O)O [Rosuvastatin sodium] | 20 | – | – |
